Among the test systems are SN12C renal; SF-295 CNS; IGROV1 ovarian; SK-MEL-2 melanoma; OVCAR-3 ovarian; MOLT-4 leukemia; NCI-H522 lung; LOX IMVI melanoma; SF-268 CNS; HOP-62 NSCLC; KM12 colon; HL-60(TB) leukemia; HCT-116 colon; CCRF-CEM leukemia; SF-539 CNS; NCI-H23 lung; MDA-MB-435; MDA-MB-231 breast; CAKI-1 renal.
Test in all cases: NCI tumour cell line growth inhibition, 48 h

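Growth conditions: 96-well plates. Treatment: test compound, 48 hours, 5 concentrations. Analysis: linear interpolation between bracketing concentrations; unreached endpoints set to highest concentration. TGI: concentration producing complete growth inhibition.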

As for `N=C1C(=N)c2ccccc2-c2ccccc21.[Cl-].[Ru+2].c1cnc2c(c1)ccc1cccnc12.c1cnc2c(c1)ccc1cccnc12`, the TGI with SN12C renal is above 100 µM; with SF-295 CNS it was above 100 µM; in the assay on IGROV1 ovarian, 72.6 µM; in the assay with SK-MEL-2 melanoma, 91.4 µM; in the assay on OVCAR-3 ovarian, 68.6 µM; with MOLT-4 leukemia it was 96.9 µM. The TGI in the assay on NCI-H522 lung is 54.7 µM; with LOX IMVI melanoma, 75.1 µM; in the assay on SF-268 CNS, above 100 µM; in the assay with HOP-62 NSCLC it was above 100 µM; in the assay with KM12 colon, above 100 µM; with HL-60(TB) leukemia it was 54 µM. Besides, the TGI was 88.8 µM in the assay on HCT-116 colon, 74.7 µM with CCRF-CEM leukemia, 57.8 µM in the assay with SF-539 CNS and above 100 µM in the assay on NCI-H23 lung.

Regarding `CC1=CC[C@H](C[C@H](C#CCCCC2OCCO2)O[Si](C(C)C)(C(C)C)C(C)C)C(=O)CC1`, the TGI in the assay with SN12C renal, in the assay on SF-295 CNS, in the assay with IGROV1 ovarian, in the assay with SK-MEL-2 melanoma, with MDA-MB-435 and with OVCAR-3 ovarian was above 100 µM throughout. In addition, the TGI in the assay on MDA-MB-231 breast, with MOLT-4 leukemia, in the assay on LOX IMVI melanoma, with SF-268 CNS, with HOP-62 NSCLC and with KM12 colon was above 100 µM in each case. The TGI with HCT-116 colon, with CCRF-CEM leukemia, in the assay with CAKI-1 renal and in the assay with NCI-H23 lung was above 100 µM in each case.

`CCN(CC)C(=O)c1cc(OC(C)C)ccc1-c1c(C)cc(OC(C)C)c(OC)c1OC`: the TGI in the assay on SN12C renal, in the assay with IGROV1 ovarian, with SK-MEL-2 melanoma, in the assay with OVCAR-3 ovarian, in the assay on MOLT-4 leukemia and in the assay with NCI-H522 lung was above 100 µM each time. The TGI with LOX IMVI melanoma was above 100 µM; with SF-268 CNS, above 100 µM; in the assay on HOP-62 NSCLC it was above 100 µM; in the assay on KM12 colon, above 100 µM; with HL-60(TB) leukemia, 96.4 µM; with HCT-116 colon, above 100 µM. Further, the TGI in the assay with CCRF-CEM leukemia, in the assay on CAKI-1 renal, in the assay with SF-539 CNS and in the assay on NCI-H23 lung was above 100 µM in each case.

Regarding `O=C(/C=C/c1cccc([N+](=O)[O-])c1)N1CCN(CCOC(c2ccccc2)c2ccccc2)CC1`, the TGI was above 100 µM in the assay with SN12C renal; above 100 µM in the assay with SF-295 CNS; above 100 µM in the assay with IGROV1 ovarian; above 100 µM in the assay with MDA-MB-435; above 100 µM in the assay on OVCAR-3 ovarian; 27.4 µM with MOLT-4 leukemia. Also, the TGI in the assay on NCI-H522 lung is above 100 µM; in the assay on LOX IMVI melanoma, 62.1 µM; with HOP-62 NSCLC it was above 100 µM; with KM12 colon, 87.8 µM; in the assay on HCT-116 colon, 51.8 µM; in the assay with CCRF-CEM leukemia, 65.4 µM. Besides, the TGI in the assay on CAKI-1 renal and in the assay on NCI-H23 lung was above 100 µM throughout.

As for `Cc1cccc2nc(-c3ccccc3)cc(=O)n12`, the TGI with SN12C renal, with SF-295 CNS, in the assay with IGROV1 ovarian, in the assay with OVCAR-3 ovarian, in the assay with MDA-MB-231 breast and in the assay with MOLT-4 leukemia was above 100 µM in each case. For the same compound, the TGI in the assay with NCI-H522 lung, with SF-268 CNS, in the assay on HOP-62 NSCLC, with KM12 colon, with HL-60(TB) leukemia and with HCT-116 colon was above 100 µM in each case. Further, the TGI with CCRF-CEM leukemia, in the assay with SF-539 CNS and in the assay with NCI-H23 lung was above 100 µM in each case.

For `CC(C)=CCc1c(O)cc(O)c2c1OC(c1ccc(O)cc1)C(O)C2=O` (stereo not given), the TGI in the assay with SN12C renal is above 100 µM; with SF-295 CNS it was 67 µM; in the assay on IGROV1 ovarian it was 88.9 µM; in the assay on SK-MEL-2 melanoma, 50.9 µM; in the assay with OVCAR-3 ovarian, 36.7 µM; with NCI-H522 lung it was 42 µM. Besides, the TGI in the assay with LOX IMVI melanoma was 35.7 µM; in the assay on SF-268 CNS, above 100 µM; in the assay with HOP-62 NSCLC it was 36.3 µM; in the assay on KM12 colon, 58.9 µM; with HCT-116 colon, above 100 µM; with SF-539 CNS, 35.5 µM. In addition, the TGI in the assay on NCI-H23 lung was 45.8 µM.

On to `O=C(O)c1cccc(Nc2c(C(=O)O)cccc2[N+](=O)[O-])c1`, for which the TGI in the assay with SN12C renal, in the assay with SF-295 CNS, in the assay on IGROV1 ovarian, with SK-MEL-2 melanoma, in the assay with OVCAR-3 ovarian and in the assay with MDA-MB-231 breast was above 100 µM each time. The TGI in the assay with MOLT-4 leukemia, in the assay on NCI-H522 lung, with LOX IMVI melanoma, in the assay on HOP-62 NSCLC, in the assay on KM12 colon and in the assay with HL-60(TB) leukemia was above 100 µM throughout. The TGI with HCT-116 colon, with CCRF-CEM leukemia, in the assay with CAKI-1 renal, in the assay on SF-539 CNS and in the assay with NCI-H23 lung was above 100 µM in each case.

With `COC(=O)c1ccccc1/C=C1\Cc2c(ccc3c2CCC3)C1=O`, the TGI with SN12C renal, in the assay with SF-295 CNS, in the assay with IGROV1 ovarian, in the assay on SK-MEL-2 melanoma, with MDA-MB-435 and in the assay on OVCAR-3 ovarian was above 100 µM throughout. Also, the TGI with MOLT-4 leukemia, in the assay on NCI-H522 lung, in the assay with LOX IMVI melanoma, with SF-268 CNS, in the assay on HOP-62 NSCLC and in the assay with KM12 colon was above 100 µM each time. Besides, the TGI in the assay with HL-60(TB) leukemia, in the assay on HCT-116 colon, in the assay with CCRF-CEM leukemia, with CAKI-1 renal, with SF-539 CNS and in the assay with NCI-H23 lung was above 100 µM in each case.

The record behind these values is PubChem BioAssay (NCI).
